# Assay results published in patent US5543415A, “Antidepressants” (Kyowa Hakko Kogyo Co., Ltd., priority 1992, dated 1996).
# Tested on: ddY-strain male mice
# Test: Acute Toxicity Test (minimum lethal dose, oral)
# Format: in vivo
# Details: seven days after administration
# Method: Test compounds were orally administered to groups of ddY-strain male mice weighing 20±1 g, each group consisting of three mice. Seven days after the administration, minimum lethal dose (MLD) of each compound was determined by observing the mortality.
row,Compound,MLD (minimum lethal dose) [mg/kg]
1,"CCn1c(=O)c2[nH]c(/C=C/c3ccccc3OC)nc2n(CC)c1=O [Compound 157, (E)-1,3-Diethyl-8-(2-methoxystyryl)xanthine]",> 100
2,"CCn1c(=O)c2c(nc(/C=C/c3ccccc3OC)n2C)n(CC)c1=O [Compound 158, (E)-1,3-Diethyl-8-(2-methoxystyryl)-7-methylxanthine]",> 100
3,"CCn1c(=O)c2[nH]c(/C=C/c3cccc([N+](=O)[O-])c3)nc2n(CC)c1=O [Compound 159, (E)-1,3-Diethyl-8-(3-nitrostyryl)xanthine]",> 100
4,"CCn1c(=O)c2c(nc(/C=C/c3cccc([N+](=O)[O-])c3)n2C)n(CC)c1=O [Compound 160, (E)-1,3-Diethyl-7-methyl-8-(3-nitrostyryl)xanthine]",> 100
5,"CCn1c(=O)c2[nH]c(/C=C/c3cccc(Br)c3)nc2n(CC)c1=O [Compound 161, (E)-8-(3-Bromostyryl)-1,3-diethylxanthine]",> 100
6,"CCn1c(=O)c2[nH]c(/C=C/c3cccc(C(F)(F)F)c3)nc2n(CC)c1=O [Compound 163, (E)-1,3-Diethyl-8-(3-trifluoromethylstyryl)xanthine]",> 100
7,"CCn1c(=O)c2c(nc(/C=C/c3cccc(C(F)(F)F)c3)n2C)n(CC)c1=O [Compound 164, (E)-1,3-Diethyl-7-methyl-8-(3-trifluoromethylstyryl)xanthine]",> 100
8,"CCn1c(=O)c2[nH]c(/C=C/c3cc4c(cc3Br)OCO4)nc2n(CC)c1=O [Compound 165, (E)-8-(2-Bromo-4,5-methylenedioxystyryl)-1,3-diethylxanthine]",> 100
9,"CCn1c(=O)c2c(nc(/C=C/c3cc4c(cc3Br)OCO4)n2C)n(CC)c1=O [Compound 166, (E)-8-(2-Bromo-4,5-methylenedioxystyryl)-1,3-diethyl-7-methylxanthine]",> 100
10,"CCn1c(=O)c2[nH]c(/C=C/c3ccccc3F)nc2n(CC)c1=O [Compound 167, (E)-1,3-Diethyl-8-(2-fluorostyryl)xanthine]",> 100
11,"CCn1c(=O)c2[nH]c(/C=C/c3ccc(N(C)C)cc3)nc2n(CC)c1=O [Compound 169, (E)-8-[4-(N,N-Dimethylamino)styryl]-1,3-diethylxanthine]",> 100
12,"CCn1c(=O)c2[nH]c(/C=C/c3ccc(-c4ccccc4)cc3)nc2n(CC)c1=O [Compound 170, (E)-1,3-Diethyl-8-(4-phenylstyryl)xanthine]",> 100
13,"CCn1c(=O)c2c(nc(/C=C/c3ccc(-c4ccccc4)cc3)n2C)n(CC)c1=O [Compound 171, (E)-1,3-Diethyl-7-methyl-8-(4-phenylstyryl)xanthine]",> 100
14,"CCn1c(=O)c2[nH]c(/C=C/c3ccc(OC)c(F)c3)nc2n(CC)c1=O [Compound 172, (E)-1,3-Diethyl-8-(3-fluoro-4-methoxystyryl)xanthine]",> 100
15,"CCn1c(=O)c2[nH]c(/C=C/c3ccc(OC)c(C)c3)nc2n(CC)c1=O [Compound 174, (E)-1,3-Diethyl-8-(4-methoxy-3-methylstyryl)xanthine]",> 100
16,"CCn1c(=O)c2[nH]c(/C=C/c3ccc(F)c(Cl)c3)nc2n(CC)c1=O [Compound 176, (E)-8-(3-Chloro-4-fluorostyryl)-1,3-diethylxanthine]",> 100
17,"CCn1c(=O)c2c(nc(/C=C/c3ccc(F)c(Cl)c3)n2C)n(CC)c1=O [Compound 177, (E)-8-(3-Chloro-4-fluorostyryl)-1,3-diethyl-7-methylxanthine]",> 100
